Measured values taken from paper PMC8379219 (Nature Communications, 2021).
Several values for one entry are separate records, joined by “and”; a condition that tells them apart may be missing. Equal entries are not always repeated. Entries after “also recorded” stand apart in the source; their conditions may differ. Where two headings read alike, the source gives them in different places.

Key:
[1] = molecular target: T1, SERT (Homo sapiens, UniProt P31645); test: [3H]IMI dissociation from SERT by VLZ in absence or presence of 10 µM Fab fragment; assay type: binding; conditions: for Fab fragment VLZ allostery w [3H]IMI Dissoc (Suppl. Fig 3A): ctrl = 1
T1 construct: expressed in transfected cells; host or cells: membranes of COS-7 cells, transient transfection
T1 sequence (P31645 whole entry, the tested form may be a part): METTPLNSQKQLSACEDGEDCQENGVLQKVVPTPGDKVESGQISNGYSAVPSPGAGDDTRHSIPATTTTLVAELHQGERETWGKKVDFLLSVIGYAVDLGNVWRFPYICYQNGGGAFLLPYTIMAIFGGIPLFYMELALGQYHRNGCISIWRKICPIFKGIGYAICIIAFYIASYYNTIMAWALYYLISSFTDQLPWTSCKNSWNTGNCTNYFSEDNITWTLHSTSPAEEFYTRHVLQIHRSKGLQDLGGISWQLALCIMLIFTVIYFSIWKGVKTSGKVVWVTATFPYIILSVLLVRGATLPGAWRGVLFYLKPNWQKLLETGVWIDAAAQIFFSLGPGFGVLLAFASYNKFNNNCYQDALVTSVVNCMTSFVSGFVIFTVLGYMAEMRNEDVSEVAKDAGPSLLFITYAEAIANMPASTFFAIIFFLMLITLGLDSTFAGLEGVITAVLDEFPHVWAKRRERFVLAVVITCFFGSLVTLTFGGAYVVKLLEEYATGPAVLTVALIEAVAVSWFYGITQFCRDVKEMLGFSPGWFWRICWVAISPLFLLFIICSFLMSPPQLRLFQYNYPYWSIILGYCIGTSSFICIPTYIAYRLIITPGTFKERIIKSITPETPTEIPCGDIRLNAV

[2] = molecular target: T1, SERT; test: [3H]S-CIT dissociation from SERT by VLZ in absence or presence of 10 µM Fab fragment; assay type: binding
[3] = molecular target: T2, SERT WT (Homo sapiens, UniProt P31645)
T2 sequence (P31645 whole entry): as the sequence (P31645 whole entry, the tested form may be a part) above

[4] = molecular target: SERT Y95F (Homo sapiens, UniProt P31645, Y95F)
Chain of SERT Y95F (P31645 whole entry Y95F): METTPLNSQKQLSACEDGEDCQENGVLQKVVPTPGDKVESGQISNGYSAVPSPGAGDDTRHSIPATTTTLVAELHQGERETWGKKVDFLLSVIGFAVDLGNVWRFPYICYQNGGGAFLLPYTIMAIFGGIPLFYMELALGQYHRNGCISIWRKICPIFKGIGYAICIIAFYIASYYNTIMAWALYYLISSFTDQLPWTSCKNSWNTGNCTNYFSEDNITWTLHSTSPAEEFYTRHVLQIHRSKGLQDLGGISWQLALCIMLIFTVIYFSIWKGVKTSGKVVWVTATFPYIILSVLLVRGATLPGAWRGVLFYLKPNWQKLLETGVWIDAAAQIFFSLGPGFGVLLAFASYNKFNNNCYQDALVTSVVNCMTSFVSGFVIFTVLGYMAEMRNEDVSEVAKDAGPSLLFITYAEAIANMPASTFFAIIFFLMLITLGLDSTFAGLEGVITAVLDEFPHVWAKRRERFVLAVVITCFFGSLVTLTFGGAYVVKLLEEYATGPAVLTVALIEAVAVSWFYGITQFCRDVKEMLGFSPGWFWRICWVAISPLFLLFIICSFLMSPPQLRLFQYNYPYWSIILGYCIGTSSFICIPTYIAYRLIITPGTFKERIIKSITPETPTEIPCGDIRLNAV

[5] = molecular target: SERT S438T (Homo sapiens, UniProt P31645, S438T)
Chain of SERT S438T (P31645 whole entry S438T): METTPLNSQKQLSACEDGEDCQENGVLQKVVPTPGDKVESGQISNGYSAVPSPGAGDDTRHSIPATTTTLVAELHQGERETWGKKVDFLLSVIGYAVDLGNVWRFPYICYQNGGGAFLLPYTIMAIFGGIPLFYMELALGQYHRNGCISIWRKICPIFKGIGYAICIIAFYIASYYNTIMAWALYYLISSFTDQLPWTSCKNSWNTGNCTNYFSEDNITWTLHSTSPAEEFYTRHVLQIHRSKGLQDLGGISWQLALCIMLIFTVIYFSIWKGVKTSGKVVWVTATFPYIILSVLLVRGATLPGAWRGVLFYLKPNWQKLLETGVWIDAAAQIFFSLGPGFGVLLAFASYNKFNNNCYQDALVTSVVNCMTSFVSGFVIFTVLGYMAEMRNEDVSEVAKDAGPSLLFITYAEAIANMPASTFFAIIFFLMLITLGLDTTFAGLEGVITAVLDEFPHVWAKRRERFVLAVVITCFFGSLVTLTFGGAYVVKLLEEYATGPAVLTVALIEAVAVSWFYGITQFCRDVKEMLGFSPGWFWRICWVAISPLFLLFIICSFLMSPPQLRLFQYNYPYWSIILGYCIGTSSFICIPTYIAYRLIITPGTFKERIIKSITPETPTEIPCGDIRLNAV

[6] = molecular target: T2, SERT WT; remark: listed apart in the source
[7] = molecular target: T2, SERT WT; conditions: Log[VLZ] (M) -4; ctrl = 1; replicates
[8] = molecular target: T2, SERT WT; test: [3H]IMI dissociation rate assay (allosteric potency), COS-7 membranes; assay type: binding; set-up: expressed in transfected cells; host or cells: COS-7;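 further: radioligand pre-bound 30 min at room temperature to equilibrium, then dissociation followed over 5–70 min, ended by filtration through GF/B filters, at least three independent experiments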

Fab fragment VLZ allostery w [3H]IMI Dissoc (Suppl. Fig 3A) ([1]; SERT WT, Log[VLZ] (M) -6): 0 | Fab fragment VLZ allostery w [3H]IMI Dissoc (Suppl. Fig 3A) ([1]; SERT WT, Log[VLZ] (M) -7.34): 0.0851 | Fab fragment VLZ allostery w [3H]IMI Dissoc (Suppl. Fig 3A) ([1]; SERT WT, Log[VLZ] (M) -7.817): 0.2902 | Fab fragment VLZ allostery w [3H]IMI Dissoc (Suppl. Fig 3A) ([1]; SERT WT, Log[VLZ] (M) -8.294): 0.4378 | Fab fragment VLZ allostery w [3H]IMI Dissoc (Suppl. Fig 3A) ([1]; w. Fab fragment, Log[VLZ] (M) -6): 0 | Fab fragment VLZ allostery w [3H]IMI Dissoc (Suppl. Fig 3A) ([1]; w. Fab fragment, Log[VLZ] (M) -7.34): 0.077 | Fab fragment VLZ allostery w [3H]IMI Dissoc (Suppl. Fig 3A) ([1]; w. Fab fragment, Log[VLZ] (M) -7.817): 0.2744 | Fab fragment VLZ allostery w [3H]IMI Dissoc (Suppl. Fig 3A) ([1]; w. Fab fragment, Log[VLZ] (M) -8.294): 0.5049 | Fab fragment VLZ allostery w [3H]S-CIT Dissoc (Suppl. Fig 3B) ([2]; SERT WT, Log[VLZ] (M) -4, ctrl 0.9997): 0 | Fab fragment VLZ allostery w [3H]S-CIT Dissoc (Suppl. Fig 3B) ([2]; SERT WT, Log[VLZ] (M) -6.046, ctrl 0.9997): 0.25 | Fab fragment VLZ allostery w [3H]S-CIT Dissoc (Suppl. Fig 3B) ([2]; SERT WT, Log[VLZ] (M) -6.523, ctrl 0.9997): 0.5086 | Fab fragment VLZ allostery w [3H]S-CIT Dissoc (Suppl. Fig 3B) ([2]; SERT WT, Log[VLZ] (M) -7, ctrl 0.9997): 0.7481 | Fab fragment VLZ allostery w [3H]S-CIT Dissoc (Suppl. Fig 3B) ([2]; w. Fab fragment, Log[VLZ] (M) -6.046, ctrl 0.9993): 0.2288 | Fab fragment VLZ allostery w [3H]S-CIT Dissoc (Suppl. Fig 3B) ([2]; w. Fab fragment, Log[VLZ] (M) -6.523, ctrl 0.9993): 0.3777 | Fab fragment VLZ allostery w [3H]S-CIT Dissoc (Suppl. Fig 3B) ([2]; w. Fab fragment, Log[VLZ] (M) -7, ctrl 0.9993): 0.7313 | Hill slope for inhibition of [3H]5-HT uptake [3]: ~ 2 | [3H]5-HT uptake inhibition ([3]; Log[VLZ] (M) -7.5): 2.2056 and 2.462 and 3.034 and 2.528 | [3H]5-HT uptake inhibition ([3]; Log[VLZ] (M) -9.5): 92.7238 | [3H]5-HT uptake inhibition ([3]; Log[VLZ] (M) -10): 95.9437 | [3H]5-HT uptake inhibition ([3]; Log[VLZ] (M) -10.5): 103.235 | [3H]5-HT uptake inhibition ([3]; Log[VLZ] (M) -11): 103.321 and 85.9044 | [3H]5-HT uptake inhibition S1 Mutants ([4]; Log[VLZ] (M) -7.5): 2.147 and 2.505 and 1.589 and 2.318 | [3H]5-HT uptake inhibition S1 Mutants ([4]; Log[VLZ] (M) -8): 11.0058 and 6.5 and 7.569 | [3H]5-HT uptake inhibition S1 Mutants ([4]; Log[VLZ] (M) -9.5): 92.5116 and 89.0566 | [3H]5-HT uptake inhibition S1 Mutants ([4]; Log[VLZ] (M) -11): 98.0826 and 93.7606 | [3H]5-HT uptake inhibition S1 Mutants ([5]; Log[VLZ] (M) -9.5): 80.1053 | [3H]5-HT uptake inhibition S1 Mutants ([5]; Log[VLZ] (M) -10): 87.6994 and 103.115 and 83.4593 | [3H]5-HT uptake inhibition S1 Mutants ([5]; Log[VLZ] (M) -11): 102.782 and 106.151 and 94.1598 | [3H]5-HT uptake inhibition S1 Mutants ([5]; Log[VLZ] (M) -12): 100.15 and 89.7676 and 98.9977 | [3H]S-CIT binding inhibition ([6]; Log[VLZ] (M) -6): 6.1374 and 6.267 and 9.306 and 7.924 | VLZ Allosteric Potency SERT WT, [3H]S-CIT dissociation (Fig. 2C) [7]: 0 | [3H]IMI dissociation (Fig. 2B) ([8]; 0.5 nM, time 5 min): 98.1806 | [3H]IMI dissociation (Fig. 2B) ([8]; 0.5 nM, time 10 min): 95.2605 | [3H]IMI dissociation (Fig. 2B) ([8]; 0.5 nM, time 15 min): 95.3158 | [3H]IMI dissociation (Fig. 2B) ([8]; 0.5 nM, time 20 min): 91.8569 | [3H]IMI dissociation (Fig. 2B) ([8]; 0.5 nM, time 30 min): 86.7456 | [3H]IMI dissociation (Fig. 2B) ([8]; 0.5 nM, time 50 min): 81.092 | [3H]IMI dissociation (Fig. 2B) ([8]; 0.5 nM, time 70 min): 71.6978 | [3H]IMI dissociation (Fig. 2B) ([8]; 1.6 nM, time 5 min): 98.6368 | [3H]IMI dissociation (Fig. 2B) ([8]; 1.6 nM, time 10 min): 97.1109 | [3H]IMI dissociation (Fig. 2B) ([8]; 1.6 nM, time 15 min): 94.6142 | [3H]IMI dissociation (Fig. 2B) ([8]; 1.6 nM, time 20 min): 91.8363
SMILES: N#Cc1ccc2[nH]cc(CCCCN3CCN(c4ccc5oc(C(N)=O)cc5c4)CC3)c2c1 [VLZ, Vilazodone]
Effect of Fab fragment on allosteric potency of VLZ ([3H]IMI dissociation) ([1]; 10 µM Fab, n = 1): no apparent effect; also recorded: unaffected | Effect of Fab fragment on allosteric potency of VLZ ([3H]S-CIT dissociation) ([2]; 10 µM Fab, n = 1): no apparent effect; also recorded: unaffected | [3H]5-HT uptake inhibition S1 Mutants ([4]; Log[VLZ] (M) -8.5): 23.4424 and 34.8885 and 39.8853 and 24.3563 | [3H]5-HT uptake inhibition S1 Mutants ([4]; Log[VLZ] (M) -9): 48.3194 and 75.9314 and 68.9865 and 51.2725 | [3H]5-HT uptake inhibition S1 Mutants ([4]; Log[VLZ] (M) -10): 97.9526 and 106.373 and 93.3855 and 88.0755 | [3H]5-HT uptake inhibition S1 Mutants ([4]; Log[VLZ] (M) -10.5): 100.1 and 92.5093 and 97.0473 and 106.269 | [3H]5-HT uptake inhibition S1 Mutants ([4]; Log[VLZ] (M) -12): 96.3138 and 97.3606 and 96.312 and 100.229 | [3H]5-HT uptake inhibition S1 Mutants ([5]; Log[VLZ] (M) -8): 14.775 and 11.8665 and 12.0164 and 12.3243 | [3H]5-HT uptake inhibition S1 Mutants ([5]; Log[VLZ] (M) -8.5): 41.3444 and 41.8738 and 54.9583 and 30.416 | [3H]5-HT uptake inhibition S1 Mutants ([5]; Log[VLZ] (M) -9): 69.6167 and 63.3209 and 84.8416 and 54.068 | [3H]5-HT uptake inhibition S1 Mutants ([5]; Log[VLZ] (M) -10.5): 92.1556 and 93.2014 and 102.815 and 97.2843 | [3H]S-CIT binding inhibition ([6]; Log[VLZ] (M) -7): 15.0029 and 12.5666 and 12.6935 and 13.2177 and 16.0372 and 22.3569 | [3H]S-CIT binding inhibition ([6]; Log[VLZ] (M) -8): 20.242 and 17.0122 and 17.5714 and 27.4498 and 22.8662 | [3H]S-CIT binding inhibition ([6]; Log[VLZ] (M) -9.5): 93.155 and 87.0219 and 91.9361 and 94.5429 | [3H]S-CIT binding inhibition ([6]; Log[VLZ] (M) -10): 90.7785 and 92.3382 and 88.1671 and 94.4965 | [3H]S-CIT binding inhibition ([6]; Log[VLZ] (M) -11): 106.327 and 106.337 and 110.336 and 113.218 and 118.473 and 111.36 | [3H]S-CIT binding inhibition ([6]; Log[VLZ] (M) -12): 92.524 and 93.4609 and 92.9453 and 86.9585 and 90.0353
